Tests used:
Test in all cases: relative viability (nuclei count vs DMSO), 5 days (fraction); higher = more cells survive
LK-2 = tested on: LK-2
Procedure, shortened: (§1)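 Five library-drug doses in √10 steps were combined with a fixed anchor-drug dose, or a single drug was given alone, by pin tool to lung cancer cell lines in 1536-well plates the day after seeding. Nuclei were stained and counted after 5 days. Relative viability is the nuclei count in treated wells over that in vehicle wells, taken as the median of duplicate plates.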

NCI-H522 = tested on: NCI-H522
Procedure, shortened: as §1

NCI-H1648 = tested on: NCI-H1648
Procedure, shortened: as §1

LCLC-103H = tested on: LCLC-103H
Procedure, shortened: as §1

NCI-H1355 = tested on: NCI-H1355
Procedure, shortened: as §1

NCI-H1666 = tested on: NCI-H1666
Procedure, shortened: as §1

IA-LM = tested on: IA-LM
Procedure, shortened: as §1

COR-L 105 = tested on: COR-L 105
Procedure, shortened: as §1

NCI-H520 = tested on: NCI-H520
Procedure, shortened: as §1

NCI-H1703 = tested on: NCI-H1703
Procedure, shortened: as §1

Work on `Cc1sc2c(c1C)C(c1ccc(Cl)cc1)=N[C@@H](CC(=O)OC(C)(C)C)c1nnc(C)n1-2` [JQ1] + O=C(CCCCCCC(=O)Nc1ccccc1)NO [Vorinostat] (partner 1 µM) yielded a relative viability (LK-2; first compound 0.04 µM) of 0.301, a relative viability (LK-2; first compound 0.1265 µM) of 0.233 and a relative viability (LK-2; first compound 0.4 µM) of 0.281. The relative viability (LK-2; first compound 1.265 µM) was 0.128, the relative viability (LK-2; first compound 4 µM) was 0.101 and the relative viability (NCI-H522; first compound 0.04 µM) was 0.984. The relative viability (NCI-H522; first compound 0.1265 µM) was 0.71, the relative viability (NCI-H522; first compound 0.4 µM) was 0.737 and the relative viability (NCI-H522; first compound 1.265 µM) was 0.497. It also gave a relative viability (NCI-H522; first compound 4 µM) of 0.368, a relative viability (NCI-H1648; first compound 0.04 µM) of 0.392 and a relative viability (NCI-H1648; first compound 0.1265 µM) of 0.41. For the same compound, the relative viability (NCI-H1648; first compound 0.4 µM) was 0.264, the relative viability (NCI-H1648; first compound 1.265 µM) was 0.234 and the relative viability (NCI-H1648; first compound 4 µM) was 0.198. For the same compound, the relative viability (LCLC-103H; first compound 0.04 µM) was 0.832, the relative viability (LCLC-103H; first compound 0.1265 µM) was 0.536 and the relative viability (LCLC-103H; first compound 0.4 µM) was 0.581. It also gave a relative viability (LCLC-103H; first compound 1.265 µM) of 0.455, a relative viability (LCLC-103H; first compound 4 µM) of 0.375 and a relative viability (NCI-H1355; first compound 0.04 µM) of 0.663. The relative viability (NCI-H1355; first compound 0.1265 µM) was 0.712, the relative viability (NCI-H1355; first compound 0.4 µM) was 0.541 and the relative viability (NCI-H1355; first compound 1.265 µM) was 0.401. The relative viability (NCI-H1355; first compound 4 µM) was 0.281, the relative viability (NCI-H1666; first compound 0.04 µM) was 0.972 and the relative viability (NCI-H1666; first compound 0.1265 µM) was 0.944. It also gave a relative viability (NCI-H1666; first compound 0.4 µM) of 0.988, a relative viability (NCI-H1666; first compound 1.265 µM) of 0.823 and a relative viability (NCI-H1666; first compound 4 µM) of 0.788. It also gave a relative viability (IA-LM; first compound 0.04 µM) of 0.925, a relative viability (IA-LM; first compound 0.1265 µM) of 0.888 and a relative viability (IA-LM; first compound 0.4 µM) of 0.197. The relative viability (IA-LM; first compound 1.265 µM) was 0.0917, the relative viability (IA-LM; first compound 4 µM) was 0.0701 and the relative viability (COR-L 105; first compound 0.04 µM) was 0.743. The relative viability (COR-L 105; first compound 0.1265 µM) was 0.773, the relative viability (COR-L 105; first compound 0.4 µM) was 0.621 and the relative viability (COR-L 105; first compound 1.265 µM) was 0.338. For the same compound, the relative viability (COR-L 105; first compound 4 µM) was 0.338, the relative viability (NCI-H520; first compound 0.04 µM) was 0.658 and the relative viability (NCI-H520; first compound 0.1265 µM) was 0.577. It also gave a relative viability (NCI-H520; first compound 0.4 µM) of 0.423, a relative viability (NCI-H520; first compound 1.265 µM) of 0.234 and a relative viability (NCI-H520; first compound 4 µM) of 0.225.
`CC(=O)O[C@@]12CO[C@@H]1C[C@H](O)[C@@]1(C)C(=O)[C@H](O)C3=C(C)[C@@H](OC(=O)[C@H](O)[C@@H](NC(=O)OC(C)(C)C)c4ccccc4)C[C@@](O)([C@@H](OC(=O)c4ccccc4)[C@H]21)C3(C)C` [Docetaxel] + NC(=O)Nc1cc(-c2cccc(F)c2)sc1C(=O)N[C@H]1CCCNC1 [AZD7762] (partner 0.2 µM) gave a relative viability (LK-2; first compound 0.0002 µM) of 0.337, a relative viability (LK-2; first compound 0.000632 µM) of 0.277 and a relative viability (LK-2; first compound 0.002 µM) of 0.113. It also gave a relative viability (LK-2; first compound 0.006325 µM) of 0.112, a relative viability (LK-2; first compound 0.02 µM) of 0.0712 and a relative viability (NCI-H522; first compound 0.0002 µM) of 0.927. It also gave a relative viability (NCI-H522; first compound 0.000632 µM) of 1.08, a relative viability (NCI-H522; first compound 0.002 µM) of 0.622 and a relative viability (NCI-H522; first compound 0.006325 µM) of 0.484. It also gave a relative viability (NCI-H522; first compound 0.02 µM) of 0.373, a relative viability (NCI-H1648; first compound 0.0002 µM) of 0.589 and a relative viability (NCI-H1648; first compound 0.000632 µM) of 0.701. For the same compound, the relative viability (NCI-H1648; first compound 0.002 µM) was 0.431, the relative viability (NCI-H1648; first compound 0.006325 µM) was 0.248 and the relative viability (NCI-H1648; first compound 0.02 µM) was 0.217. For the same compound, the relative viability (LCLC-103H; first compound 0.0002 µM) was 0.771, the relative viability (LCLC-103H; first compound 0.000632 µM) was 0.826 and the relative viability (LCLC-103H; first compound 0.002 µM) was 0.654. For the same compound, the relative viability (LCLC-103H; first compound 0.006325 µM) was 0.508, the relative viability (LCLC-103H; first compound 0.02 µM) was 0.372 and the relative viability (NCI-H1355; first compound 0.0002 µM) was 0.698. The relative viability (NCI-H1355; first compound 0.000632 µM) was 0.758, the relative viability (NCI-H1355; first compound 0.002 µM) was 0.411 and the relative viability (NCI-H1355; first compound 0.02 µM) was 0.191. For the same compound, the relative viability (NCI-H1666; first compound 0.0002 µM) was 0.692, the relative viability (NCI-H1666; first compound 0.000632 µM) was 0.695 and the relative viability (NCI-H1666; first compound 0.002 µM) was 0.521. For the same compound, the relative viability (NCI-H1666; first compound 0.006325 µM) was 0.465, the relative viability (NCI-H1666; first compound 0.02 µM) was 0.359 and the relative viability (NCI-H1703; first compound 0.000632 µM) was 0.121. For the same compound, the relative viability (NCI-H1703; first compound 0.002 µM) was 0.107, the relative viability (NCI-H1703; first compound 0.006325 µM) was 0.114 and the relative viability (NCI-H1703; first compound 0.02 µM) was 0.0729.
`Cc1sc2c(c1C)C(c1ccc(Cl)cc1)=N[C@@H](CC(=O)OC(C)(C)C)c1nnc(C)n1-2` [JQ1] + NC(=O)Nc1cc(-c2cccc(F)c2)sc1C(=O)N[C@H]1CCCNC1 [AZD7762] (partner 0.2 µM) showed a relative viability (LK-2; first compound 0.04 µM) of 0.464, a relative viability (LK-2; first compound 0.1265 µM) of 0.388 and a relative viability (LK-2; first compound 0.4 µM) of 0.229. The relative viability (LK-2; first compound 1.265 µM) was 0.101, the relative viability (LK-2; first compound 4 µM) was 0.128 and the relative viability (NCI-H522; first compound 0.04 µM) was 0.974. It also gave a relative viability (NCI-H522; first compound 0.1265 µM) of 0.685, a relative viability (NCI-H522; first compound 0.4 µM) of 0.774 and a relative viability (NCI-H522; first compound 1.265 µM) of 0.52. It also gave a relative viability (NCI-H522; first compound 4 µM) of 0.397, a relative viability (NCI-H1648; first compound 0.04 µM) of 0.862 and a relative viability (NCI-H1648; first compound 0.1265 µM) of 0.906. It also gave a relative viability (NCI-H1648; first compound 0.4 µM) of 0.579, a relative viability (NCI-H1648; first compound 1.265 µM) of 0.376 and a relative viability (NCI-H1648; first compound 4 µM) of 0.388. For the same compound, the relative viability (LCLC-103H; first compound 0.04 µM) was 0.778, the relative viability (LCLC-103H; first compound 0.1265 µM) was 0.713 and the relative viability (LCLC-103H; first compound 0.4 µM) was 0.701. It also gave a relative viability (LCLC-103H; first compound 1.265 µM) of 0.492, a relative viability (LCLC-103H; first compound 4 µM) of 0.438 and a relative viability (NCI-H1355; first compound 0.04 µM) of 0.747. It also gave a relative viability (NCI-H1355; first compound 0.1265 µM) of 0.769, a relative viability (NCI-H1355; first compound 0.4 µM) of 0.705 and a relative viability (NCI-H1355; first compound 1.265 µM) of 0.554. The relative viability (NCI-H1355; first compound 4 µM) was 0.406, the relative viability (NCI-H1666; first compound 0.04 µM) was 0.869 and the relative viability (NCI-H1666; first compound 0.1265 µM) was 0.793. The relative viability (NCI-H1666; first compound 0.4 µM) was 0.65, the relative viability (NCI-H1666; first compound 1.265 µM) was 0.48 and the relative viability (NCI-H1666; first compound 4 µM) was 0.488. The relative viability (NCI-H1703; first compound 0.04 µM) was 0.111, the relative viability (NCI-H1703; first compound 0.1265 µM) was 0.13 and the relative viability (NCI-H1703; first compound 0.4 µM) was 0.155. It also gave a relative viability (NCI-H1703; first compound 1.265 µM) of 0.108 and a relative viability (NCI-H1703; first compound 4 µM) of 0.118.

Reference: the supplement of paper PMC10307832
